Measured values from patent publication US20190159450A1, “PYRIDINE-BASED COMPOUND INCLUDING ISOXAZOLINE RING AND USE THEREOF AS HERBICIDE” (MOGHU RESEARCH CENTER LTD., priority 2016, published 2019).

What was measured:
Format in all cases: in vivo
Xanthium strumarium [1] = test: Herbicidal activity test, post-weeds emergence treatment; conditions: spray amount 50 g/ha for weeds, assessed after 2 to 3 weeks, 0: no effect, 10: complete death, Table 6
Procedure: (§1) A rectangular plastic pot with a surface area of 300 cm^2 was filled with sandy loam soil and mixed soil at a ratio of 1:1, and four kinds of weeds including Quamoclit pennata, Abutilon theophrasti Medicus, and Aeschynomene indica, Xanthium strumarium were sown therein. In another pot made in the same way, three kinds of crop seeds including maize, wheat, and rice were sown. The pots were watered and one day later, a medicament was sprayed thereon. The spraying was performed by using a track sprayer (R&D Sprayer, USA) equipped with Teejet 8002EVS (Spraying Systems Co., USA) nozzle, and the spray amount was controlled to be 1000 L/ha. A spray solution was prepared by dissolving the compound of each example or a control material in acetone, and then, adding the same amount of 0.1% (v/v) tween 20 aqueous solution thereto. The spray amount was 200 g/ha. The pots were placed in a greenhouse in which the temperature was maintained at 25° C. to 30° C. during the day and 15° C. to 25° C. during the night, and was regularly watered. After 2 to 3 weeks from the spraying of the compounds or the control material, the efficacy and the damages on each weed and each crop were assessed according to the scale of 0-10 (0: no effect, 10: complete death) scale and the results are shown in Table 3 below.
(§2) Pots for crops and weeds were prepared in the same manner as in Experimental Example 1, and then, when the crops and the weeds were raised up to 2 weeks roughly on a third-leaf stage, the compounds and the control material were sprayed thereon in the same manner as described above. The spray amount was 200 g/ha. After 2 to 3 weeks from the spraying of the test substance or the control substance, the efficacy and the damages on each weed and each crop were assessed according to the scale of 0-10 (0: no effect, 10: complete death) scale.
(§3) Pots for crops and weeds were prepared in the same manner as the test method illustrated in Table 5, and four kinds of weeds selected from Quamoclit pennata, Abutilon theophrasti Medicus, and Aeschynomene indica, Xanthium strumarium were used. The spray amount was 200 g/ha for crops and 50 g/ha for weeds.

[2] = system: Abutilon theophrasti Medicus; test: as above; conditions: spray amount 50 g/ha for weeds, assessed after 2 to 3 weeks, 0: no effect, 10: complete death, Table 6
Procedure: as §1, §2, §3

Quamoclit pennata [3] = test: as above; conditions: spray amount 50 g/ha for weeds, assessed after 2 to 3 weeks, 0: no effect, 10: complete death, Table 6
Procedure: as §1, §2, §3

Aeschynomene indica [4] = test: as above; conditions: spray amount 50 g/ha for weeds, assessed after 2 to 3 weeks, 0: no effect, 10: complete death, Table 6
Procedure: as §1, §2, §3

Xanthium strumarium [5] = test: Herbicidal activity test, pre-weeds emergence treatment; conditions: Table 4, 200 g/ha, assessed 2 to 3 weeks after spraying, scale 0-10 (0: no effect, 10: complete death)
Procedure: as §1
(§4) Pots for crops and weeds were prepared in the same manner as the test method illustrated in Table 3, and three kinds of weeds selected from Quamoclit pennata, Abutilon theophrasti Medicus, and Aeschynomene indica, Xanthium strumarium were used.

[6] = system: Abutilon theophrasti Medicus; test: as above; conditions: Table 4, 200 g/ha, assessed 2 to 3 weeks after spraying, scale 0-10 (0: no effect, 10: complete death)
Procedure: as §1, §4

Quamoclit pennata [7] = test: as above; conditions: Table 4, 200 g/ha, assessed 2 to 3 weeks after spraying, scale 0-10 (0: no effect, 10: complete death)
Procedure: as §1, §4

Aeschynomene indica [8] = test: as above; conditions: Table 4, 200 g/ha, assessed 2 to 3 weeks after spraying, scale 0-10 (0: no effect, 10: complete death)
Procedure: as §1, §4

maize [9] = test: Herbicidal activity test, pre-weeds emergence treatment (crop damage); conditions: Table 4, 200 g/ha, assessed 2 to 3 weeks after spraying, scale 0-10 (0: no effect, 10: complete death)
Procedure: as §1, §4

wheat [10] = test: as above; conditions: Table 4, 200 g/ha, assessed 2 to 3 weeks after spraying, scale 0-10 (0: no effect, 10: complete death)
Procedure: as §1, §4

rice [11] = test: as above; conditions: Table 4, 200 g/ha, assessed 2 to 3 weeks after spraying, scale 0-10 (0: no effect, 10: complete death)
Procedure: as §1, §4

maize [12] = test: Herbicidal activity test, post-weeds emergence treatment (crop damage); conditions: spray amount 200 g/ha for crops, assessed after 2 to 3 weeks, 0: no effect, 10: complete death, Table 6
Procedure: as §1, §2, §3

wheat [13] = test: as above; conditions: spray amount 200 g/ha for crops, assessed after 2 to 3 weeks, 0: no effect, 10: complete death, Table 6
Procedure: as §1, §2, §3

rice [14] = test: as above; conditions: spray amount 200 g/ha for crops, assessed after 2 to 3 weeks, 0: no effect, 10: complete death, Table 6
Procedure: as §1, §2, §3

| Compound | XANST (Xanthium strumarium) herbicidal efficacy, scale of 0-10 (Xanthium strumarium [1]) | ABUTH (Abutilon theophrasti Medicus) herbicidal efficacy, scale of 0-10 [2] | IPOAN (Quamoclit pennata) herbicidal efficacy, scale of 0-10 (Quamoclit pennata [3]) | AESIN (Aeschynomene indica) herbicidal efficacy, scale of 0-10 (Aeschynomene indica [4]) | PRE XANST (Xanthium strumarium), efficacy score (Xanthium strumarium [5]) | PRE ABUTH (Abutilon theophrasti Medicus), efficacy score [6] | PRE IPOAN (Quamoclit pennata), efficacy score (Quamoclit pennata [7]) | PRE AESIN (Aeschynomene indica), efficacy score (Aeschynomene indica [8]) | PRE ZEAMX (maize), damage score (maize [9]) | PRE TRZAW (wheat), damage score (wheat [10]) | PRE ORYSA (rice), damage score (rice [11]) | ZEAMX (maize) damage, scale of 0-10 (maize [12]) | TRZAW (wheat) damage, scale of 0-10 (wheat [13]) | ORYSA (rice) damage, scale of 0-10 (rice [14]) |
| --- | --- | --- | --- | --- | --- | --- | --- | --- | --- | --- | --- | --- | --- | --- |
| COc1ccc(COC(=O)c2nc(C3CC(Br)=NO3)cc(N)c2Cl)cc1 (stereo not shown) [Compound 89, 4-methoxybenzyl 4-amino-6-(3-bromo-4,5-dihydroisoxazol-5-yl)-3-chloropicolinate] | 9 | 6 | 5 | 8 | 10 | 8 | 8 | 10 | 0 | 0 | 0 | 0 | 0 | 0 |
| Nc1cc(C2CC(Br)=NO2)nc(C(=O)OCc2ccc(F)cc2)c1Cl (stereo not shown) [Compound 90, 4-fluorobenzyl 4-amino-6-(3-bromo-4,5-dihydroisoxazol-5-yl)-3-chloropicolinate] | 10 | 5 | 4 | 7 | 7 | 3 | 3 | 10 | 0 | 0 | 0 | 0 | 0 | 0 |
| Nc1cc(C2CC(Br)=NO2)nc(C(=O)OCc2ccc(Br)cc2)c1Cl (stereo not shown) [Compound 91, 4-bromobenzyl 4-amino-6-(3-bromo-4,5-dihydroisoxazol-5-yl)-3-chloropicolinate] | 10 | 5 | 5 | 6 | 6 | 10 | 2 | 6 | 0 | 0 | 0 | 0 | 0 | 0 |
| Nc1cc(C2CC(Cl)=NO2)nc(C(=O)Oc2ccccc2)c1Cl (stereo not shown) [Compound 94, phenyl 4-amino-3-chloro-6-(3-chloro-4,5-dihydroisoxazol-5-yl)picolinate] | 10 | 10 | 8 | 10 | 10 | 10 | 10 | 10 | 2 | 0 | 7 | 0 | 0 | 3 |
| Nc1cc(C2CC(Cl)=NO2)nc(C(=O)OCc2ccccc2)c1Cl (stereo not shown) [Compound 95, benzyl 4-amino-3-chloro-6-(3-chloro-4,5-dihydroisoxazol-5-yl)picolinate] | 10 | 10 | 8 | 10 | 10 | 10 | 0 | 10 | 0 | 0 | 6 | 1 | 1 | 1 |
